According to patent US10159717B2, “Methods of treating cancer of the central nervous system” (Yeda Research and Development Co. Ltd., priority 2008, dated 2018):

Columns and labels:
C6 glioma = C6 glioma implanted in rat striatum, tumor growth followed by MRI; format: in vivo; settings: 0.2M oxaloacetate in drinking water from day 7, MRI 10 days later, in average
Experimental: Male SPD&OLD rats weighing 260-280 g were used and placed in individual cages. All experiments were conducted according to the guidelines of the institutional animal care and use committee of the Weizmann Institute of Science, Rehovot, Israel.
Rat C6 glioma cells were grown in DMEM medium supplemented with 10% FCS. 10^7 cells were plated on 100×20 mm dishes and grown to 80% confluence for two days, passaged at a dilution of 1:10 after 1-2 min exposure to 0.25% trypsin and plated on 7 plates 60×15 mm. The cells were grown to 80% confluence for two additional days. The cells were then trypsynized as above, washed once with sterile PBS and centrifuged for 15 min at 1200 rpm. Prior to centrifugation, the cells were counted in a hemocytometer. Following centrifugation, the medium was removed and the cells were diluted in sterile PBS to a final concentration […] was injected immediately intracranially. For that purpose, the rats were anesthetized with 1.5% Halothane and placed in a stereotactic apparatus. […]
Experiments on live animals were conducted on a Bio spec Avance™ system (Bruker Biospin, Ettlingen, Germany) with a 4.7 T 30-cm horizontal bore magnet. […] The volume of the tumor was assessed using the Surdriver program.
After establishing that oxaloacetate has no effect on glioma growth when grown under in vitro conditions, the effect of same in vivo was determined. […]

[1] = Stability of oxaloacetate solutions; format: physicochemical; settings: cell culture medium
Experimental: To test the effect of oxaloacetate (OA) on glioma cells in vitro, C6 glioma cells were incubated with 1 mM oxaloacetate. Since oxaloacetate solutions are unstable, the cell culture medium was changed every day to allow the cells to be daily exposed to a fresh oxaloacetate solution.

stability of solutions [1]: unstable
SMILES: O=C(O)CC(=O)C(=O)O [oxaloacetate]
Tumor spread, less than that of untreated animals that received drinking water only (C6 glioma): at least 10 folds
